The source of these data is publication PMC9821907, “Synthesis and Antiprotozoal Activity of Azabicyclo-Nonane Pyrimidine Hybrids” (Molecules, 2022).

Read-outs that look alike come from different tables or passages of the source.

The subject of series [1] is P. falciparum NF54. To be noted: NF54 strain, sensitive to chloroquine and pyrimethamine, cited from earlier work.
Series [2] deals with T. brucei rhodesiense STIB900. More on the design: method as in PMID 25746816. To be noted: ref [12]; cited from earlier work.
The subject of series [3] is L-6 cells. To be noted: cited from earlier work.
The subject of series [4] is P. falciparum K1. Further details: method as in PMID 25746816. To be noted: K1 strain, resistant to chloroquine, sulfadoxine and pyrimethamine; ref [12]; cited from earlier work.
In series [5] the test system is P. falciparum K1. Briefly: In vitro microplate 3H-hypoxanthine incorporation assay against P. falciparum K1. The series is classed as cell-based, Plasmodium falciparum. To be noted: resistant to chloroquine, sulfadoxine and pyrimethamine, average of four determinations, read-out: P. falciparum K1 IC50. The procedure: (§1) Compounds were tested for their activities against Plasmodium falciparum NF54 (sensitive to chloroquine) and Trypanosoma brucei rhodesiense STIB900, via serial dilution assays. Furthermore, selected compounds were tested against the K1 strain of Plasmodium falciparum (resistant against chloroquine, sulfadoxine and pyrimethamine). Their cytotoxicity was determined with rat skeletal myoblasts (L-6 cells).
(§2) In vitro activity against erythrocytic stages of P. falciparum was determined using a ^3H-hypoxanthine incorporation assay using the drug sensitive NF54 strain [27] or the chloroquine- and pyrimethamine-resistant K1 strain [28]. Compounds were dissolved in DMSO at 10 mg/mL and further diluted in medium before being added to parasite cultures incubated in RPMI 1640 medium without hypoxanthine, supplemented with HEPES (5.94 g/L), NaHCO3 (2.1 g/L), neomycin (100 U/mL), Albumax® (5 g/L) and washed human red cells A+ at 2.5% haematocrit (0.3% parasitaemia). Serial drug dilutions of eleven 3-fold dilution steps covering a range from 100 to 0.002 μg/mL were prepared. The 96-well plates were incubated in a humidified atmosphere at 37 °C; 4% CO2, 3% O2, 93% N2. After 48 h, 0.05 mL of ^3H-hypoxanthine (= 0.5 μCi) was added to each well of the plate. The plates were incubated for a further 24 h under the same conditions. The plates were then harvested with a Betaplate™ cell harvester (Wallac, Zurich, Switzerland), and the red blood cells transferred onto a glass fibre filter then washed with distilled water. The dried filters were inserted into a plastic foil with 10 mL of scintillation fluid, and counted in a Betaplate™ liquid scintillation counter (Wallac, Zurich, Switzerland). IC50 values were calculated from sigmoidal inhibition curves by linear regression using Microsoft Excel. Chloroquine (Sigma C6628) was used as control.

The test system of series [6] is T. brucei rhodesiense STIB900. Briefly: In vitro microplate resazurin assay against T. brucei rhodesiense. To be noted: Trypanosoma brucei; bloodstream forms; average of four determinations; read-out: T. brucei rhodesiense STIB900 IC50. The series is classed as cell-based. As for the experimental part:
as §1
Minimum essential medium (50 µL) supplemented with 25 mM HEPES, 1g/L additional glucose, 1% MEM non-essential amino acids (100×), 0.2 mM 2-mercaptoethanol, 1mM Na-pyruvate and 15% heat-inactivated horse serum was added to each well of a 96-well microtiter plate. Serial drug dilutions of eleven 3-fold dilution steps covering a range from 100 to 0.002 μg/mL were prepared. Then 4 × 10^3 bloodstream forms of T. b. rhodesiense STIB 900 in 50 µL was added to each well and the plate incubated at 37 °C under a 5 % CO2 atmosphere for 70 h. Next, 10 µL resazurin solution (resazurin, 12.5 mg in 100 mL double-distilled water) was added to each well and incubation continued for a further 2–4 h. Then the plates were read with a Spectramax Gemini XS microplate fluorometer (Molecular Devices Cooperation, Sunnyvale, CA, USA) using an excitation wave length of 536 nm and an emission wave length of 588 nm. Data were analyzed with the graphic programme Softmax Pro (Molecular Devices Cooperation, Sunnyvale, CA, USA), which calculated IC50 values by linear regression and 4-parameter logistic regression from the sigmoidal dose inhibition curves. Melarsoprol (Arsobal Sanofi-Aventis, received from WHO) was used as control.

A short description of the next series: in vitro. To be noted: rat. As for the experimental part:
as §1
(§3) Assays were performed in 96-well microtiter plates, each well containing 0.1 mL of RPMI 1640 medium supplemented with 1% L-glutamine (200 mM) and 10% fetal bovine serum, and 4000 L-6 cells (a primary cell line derived from rat skeletal myoblasts, ATCC CRL-1458™). Serial drug dilutions of eleven 3-fold dilution steps covering a range from 100 to 0.002 μg/mL were prepared. After 70 h of incubation the plates were inspected under an inverted microscope to assure growth of the controls and sterile conditions. Then, 0.01 mL resazurin solution (resazurin, 12.5 mg in 100 mL double-distilled water) was added to each well and the plates incubated for another 2 h. The plates were read with a Spectramax Gemini XS microplate fluorometer (Molecular Devices Cooperation, Sunnyvale, CA, USA) using an excitation wave length of 536 nm and an emission wave length of 588 nm. The IC50 values were calculated by linear regression from the sigmoidal dose inhibition curves using SoftmaxPro software (Molecular Devices Cooperation, Sunnyvale, CA, USA). Podophyllotoxin (Sigma P4405) was used as control.

The subject of series [7] is P. falciparum NF54. Briefly: In vitro microplate 3H-hypoxanthine incorporation assay against P. falciparum NF54. The format is cell-based. To be noted: Plasmodium falciparum; NF54 strain, sensitive to chloroquine and pyrimethamine; average of four determinations; read-out: P. falciparum NF54 IC50. As for the experimental part:
as §1, §2

Series [8] has as its system L-6 cells. The series is described as follows: In vitro cytotoxicity with L-6 cells. To be noted: read-out: Cytotoxicity L-6 Cells IC50; rat skeletal myoblasts; average of four determinations. The procedure: as §1, §3
Setting [9] is: Plasmodium falciparum, K1, K1 strain.

In general, IC50 refers to the concentration at which inhibition is half-maximal. As to “1-(pyrrolidin-1-yl)-3-azabicyclononane [Compound 4]”, the IC50 in the series on P. falciparum NF54 [1] (ref [13]) was 0.072 µM; in series [2], 1 µM; in the series with L-6 cells [3] (read-out: Cytotoxicity L-6 Cells IC50, rat skeletal myoblasts, ref [12]), 72.9 µM; with P. falciparum K1 [4], 0.095 µM.
For the compound `Cc1cc(N2CC3C(c4ccccc4)CC(N4CCCCC4)(CC3c3ccccc3)C2)nc(N)n1` (racemic) [Compound 7], the IC50 was 0.051 ± 0.024 µM with P. falciparum K1 [5] (K1 strain), 0.051 to 0.094 µM in the series on P. falciparum K1 [5] (setting [9]), 0.573 ± 0.132 µM in [6] and 0.024 ± 0.004 µM in the series with P. falciparum NF54 [7]. Besides, in the series “in vitro”, half-maximal inhibition (IC50 at 72 h) was put at 8 ± 1.89 µM.
For `Cc1cc(N2CC3C(c4ccccc4)CC(N4CCCC4)(CC3c3ccccc3)C2)nc(Cl)n1` (racemic) [Compound 16, rac-(7R,8R)-3-(2-chloro-6-methylpyrimidin-4-yl)-6,9-diphenyl-1-(pyrrolidin-1-yl)-3-azabicyclo[3.2.2]nonane], the IC50 was 0.292 ± 0.021 µM in the series with P. falciparum K1 [5] (setting [9]), 4.31 ± 0.021 µM in series [6] and 0.281 ± 0.006 µM with P. falciparum NF54 [7]. In the series “in vitro”, this compound registered an IC50 at 72 h of 12.5 ± 1.44 µM.
In the case of “1-(piperidin-1-yl)-3-azabicyclononane [Compound 3]”, the values for the IC50 (in series [2]; with L-6 cells [3]; in the series with P. falciparum K1 [4]) were 2.02 µM, 122 µM and 0.75 µM, respectively.
On to `Cc1cc(N2CCC3(N4CCCC4)C[C@H](c4ccccc4)C2[C@@H](c2ccccc2)C3)nc(N2CCCC2)n1` (racemic) [Compound 18, rac-(7R,8R)-2-[6-methyl-2-(pyrrolidin-1-yl)pyrimidin-4-yl]-7,8-diphenyl-5-(pyrrolidin-1-yl)-2-azabicyclo[3.2.2]nonane], for which the IC50 in the series on P. falciparum K1 [5] (setting [9]) is 0.059 ± 0.002 µM; in series [6], 0.095 ± 0.032 µM; with P. falciparum NF54 [7], 0.136 ± 0.016 µM. The compound further yielded an IC50 at 72 h in “in vitro” of 15.1 ± 0.483 µM.
With `Cc1cc(N2CCC3(N4CCCCC4)C[C@H](c4ccccc4)C2[C@@H](c2ccccc2)C3)nc(Cl)n1` (racemic) [Compound 13, rac-(7R,8R)-2-(2-chloro-6-methylpyrimidin-4-yl)-7,8-diphenyl-5-(piperidin-1-yl)-2-azabicyclo[3.2.2]nonane], the IC50 in the series on P. falciparum K1 [5] (setting [9]) was found to be 0.567 ± 0.047 µM; in [6], 1.55 ± 0.047 µM; in the series on P. falciparum NF54 [7], 0.694 ± 0.018 µM. For the same compound, the IC50 at 72 h in the series “in vitro” is 3.1 ± 0.051 µM.
Consider `Nc1cc(N2CCC3(N4CCCC4)CC(c4ccccc4)C2C(c2ccccc2)C3)nc(N)n1` (racemic) [Compound 10, rac-6-[(7R,8R)-7,8-diphenyl-5-(pyrrolidin-1-yl)-2-azabicyclo[3.2.2]nonan-2-yl]pyrimidine-2,4-diamine], for which the IC50 amounted to 0.216 ± 0.037 µM in the series on P. falciparum K1 [5] (setting [9]), 0.853 ± 0.016 µM in [6] and 0.079 ± 0.001 µM in the series on P. falciparum NF54 [7]. Inhibition in “in vitro” was half-maximal at 11.26 ± 0.033 µM (IC50 at 72 h).
For the compound `Cc1cc(N2CCC3(N4CCCC4)C[C@H](c4ccccc4)C2[C@@H](c2ccccc2)C3)nc(Cl)n1` (racemic) [Compound 14, rac-(7R,8R)-2-(2-chloro-6-methylpyrimidin-4-yl)-7,8-diphenyl-5-(pyrrolidin-1-yl)-2-azabicyclo[3.2.2]nonane], the IC50 in the series on P. falciparum K1 [5] (setting [9]) is 0.366 ± 0.095 µM; in [6], 1.64 ± 0.022 µM; in the series with P. falciparum NF54 [7] it was 1.04 ± 0.302 µM. The compound further had an IC50 at 72 h in “in vitro” of 9.62 ± 1.1 µM.
With `Cc1cc(N2CC3C(c4ccccc4)CC(N4CCCCC4)(CC3c3ccccc3)C2)nc(N2CCCC2)n1` (racemic) [Compound 19, rac-(7R,8R)-3-[6-methyl-2-(pyrrolidin-1-yl)pyrimidin-4-yl]-6,9-diphenyl-1-(piperidin-1-yl)-3-azabicyclo[3.2.2]nonane], the values for the IC50 (in the series on P. falciparum K1 [5] (setting [9]); in series [6]; in the series with P. falciparum NF54 [7]) were 0.694 ± 0.268 µM, 3.16 ± 1.06 µM and 5.29 ± 0.134 µM, respectively. In addition, the IC50 at 72 h in “in vitro” was 58.4 ± 22.9 µM.
As for “5-(piperidin-1-yl)-2-azabicyclo-nonane [Compound 1]”, the IC50 in series [2] was 6.57 µM; in the series on L-6 cells [3], 89.7 µM; in the series on P. falciparum K1 [4] it was 0.64 µM.
Take `Cc1cc(N2CCC3(N4CCCCC4)CC(c4ccccc4)C2C(c2ccccc2)C3)nc(N)n1` (racemic) [Compound 5, rac-4-[(7R,8R)-7,8-diphenyl-5-(piperidin-1-yl)-2-azabicyclo[3.2.2]nonan-2-yl]-6-methylpyrimidin-2-amine]: the IC50 in the series with P. falciparum K1 [5] (setting [9]) was found to be 0.14 ± 0.033 µM; in series [6], 3.31 ± 0.235 µM; in the series on P. falciparum NF54 [7], 0.212 ± 0.012 µM. Also, the IC50 at 72 h in “in vitro” was determined as 10.7 ± 1.94 µM.
With `COc1cc([C@@H]2c3cc4c(cc3[C@H](O)[C@H]3COC(=O)[C@H]23)OCO4)cc(OC)c1OC` [POD, podophyllotoxin, reference compound], the concentration for half-maximal inhibition (IC50) in the series with L-6 cells [8] is 0.012 µM.
Consider `Cc1cc(N2CC3C(c4ccccc4)CC(N4CCCCC4)(CC3c3ccccc3)C2)nc(Cl)n1` (racemic) [Compound 15, rac-(7R,8R)-3-(2-chloro-6-methylpyrimidin-4-yl)-6,9-diphenyl-1-(piperidin-1-yl)-3-azabicyclo[3.2.2]nonane], for which the half-inhibitory concentration (IC50) in the series with P. falciparum K1 [5] (setting [9]) was determined as 2.08 ± 0.43 µM; in series [6] it was 9.51 ± 0.914 µM; in the series on P. falciparum NF54 [7], 1.49 ± 0.784 µM. This compound had a half-inhibitory concentration (IC50) at 72 h in “in vitro” of 27.2 ± 11.8 µM.
For `Nc1cc(N2CCC3(N4CCCCC4)CC(c4ccccc4)C2C(c2ccccc2)C3)nc(N)n1` (racemic) [Compound 9, rac-6-[(7R,8R)-7,8-diphenyl-5-(piperidin-1-yl)-2-azabicyclo[3.2.2]nonan-2-yl]pyrimidine-2,4-diamine], the IC50 with P. falciparum K1 [5] (K1 strain) is 0.094 ± 0.004 µM; with P. falciparum K1 [5] (setting [9]), 0.051 to 0.094 µM; in series [6], 1.56 ± 0.643 µM; in the series with P. falciparum NF54 [7], 0.051 ± 0.007 µM. Half-maximal inhibition in the series “in vitro” (IC50 at 72 h) was put at 9.73 ± 0.661 µM.
In the case of `Nc1cc(N2CC3C(c4ccccc4)CC(N4CCCC4)(CC3c3ccccc3)C2)nc(N)n1` (racemic) [Compound 12], the IC50 in the series with P. falciparum K1 [5] (setting [9]) was determined as 0.172 ± 0.051 µM; in series [6], 0.946 ± 0.374 µM; with P. falciparum NF54 [7], 0.033 ± 0.016 µM. This compound also gave an IC50 at 72 h in the series “in vitro” of 11.1 ± 0.836 µM.
Consider “5-(pyrrolidin-1-yl)-2-azabicyclononane [Compound 2]”, for which the IC50 in series [2] is 1.16 µM; with L-6 cells [3] it was 120 µM; with P. falciparum K1 [4], 0.56 µM.
Consider `CCc1nc(N)nc(N)c1-c1ccc(Cl)cc1` [PYR, pyrimethamine, reference compound], for which the 50% inhibitory concentration (IC50) is 0.017 µM in the series on P. falciparum NF54 [1] (ref [24]) and 10 µM in the series with P. falciparum K1 [5] (setting [9]).
